The text below walks through data of patent publication US12071408B2, “Multi-targeted tyrosine kinase inhibitors effective in antitumor uses” (Shanghai AB PharmaTech Ltd., priority 2021, dated 2024).

The target of assay [1] is C-MET (Homo sapiens (Human), UniProt P08581). The assay can be described thus: Kinase inhibition, Mobility-Shift Assay. The format is biochemical.
In assay [2] the target is FGFR3 (Homo sapiens (Human), UniProt P22607). The assay can be described thus: Kinase inhibition, Mobility-Shift Assay. The format is biochemical. The settings on record: read-out: FGFR-3 IC50. On the procedure:
In this experiment, the inhibitory effects of small molecule inhibitors on 17 kinases were examined by using fluorescent microfluidic mobility shift assay (Mobility-Shift Assay).
2. Compounds were configured in 100% DMSO in a concentration gradient and diluted with buffer to 10% DMSO, and added to 384-well plates. Compounds starting at […] are prepared in 100% DMSO to 25 μM and diluted in a gradient of 10 concentrations, then diluted 10-fold in buffer to make an intermediate dilution of the compound containing 10% DMSO and transferred 5 μl to a 384-well plate. 3. The kinase was diluted to optimal concentration with the following buffers: 50 mM HEPES, pH 7.5, 0.00015% Brij-35, 2 mM DTT (final concentration of enzyme reaction: VEGFR-1 (FLT1): 2 nM; VEGFR-2 (KDR): 1.2 nM; VEGFR-3 (FLT4): 1.5 nM; FGFR1: 2 nM); FGFR2: 9 nM; FGFR3: 8 nM; FGFR4: 10 nM; PDGFRα: 3.5 nM; c-MET: 10 nM; RET: 7 nM; EGFR: 6 nM). Transfer 10 μl into a 384-well plate and incubate with the compounds for 10 min. 4. […] Read the conversion rate with Caliper Reader and calculate the conversion rate as suppression, formula Percent inhIcition=(max−conversion)/(max−min)*100. […]

Assay [3] has as its target EGFR (Homo sapiens (Human), UniProt P00533). Kind of assay: Kinase inhibition, Mobility-Shift Assay. Type of assay: biochemical.
Assay [4] concerns the target ABL (Homo sapiens (Human), UniProt P00519). The assay can be described thus: Kinase inhibition, Mobility-Shift Assay. The format is biochemical.
The target of assay [5] is FGFR4 (Homo sapiens (Human), UniProt P22455). The assay can be described thus: Kinase inhibition, Mobility-Shift Assay. The format is biochemical.
Sequence of FGFR4 (P22455 22-802): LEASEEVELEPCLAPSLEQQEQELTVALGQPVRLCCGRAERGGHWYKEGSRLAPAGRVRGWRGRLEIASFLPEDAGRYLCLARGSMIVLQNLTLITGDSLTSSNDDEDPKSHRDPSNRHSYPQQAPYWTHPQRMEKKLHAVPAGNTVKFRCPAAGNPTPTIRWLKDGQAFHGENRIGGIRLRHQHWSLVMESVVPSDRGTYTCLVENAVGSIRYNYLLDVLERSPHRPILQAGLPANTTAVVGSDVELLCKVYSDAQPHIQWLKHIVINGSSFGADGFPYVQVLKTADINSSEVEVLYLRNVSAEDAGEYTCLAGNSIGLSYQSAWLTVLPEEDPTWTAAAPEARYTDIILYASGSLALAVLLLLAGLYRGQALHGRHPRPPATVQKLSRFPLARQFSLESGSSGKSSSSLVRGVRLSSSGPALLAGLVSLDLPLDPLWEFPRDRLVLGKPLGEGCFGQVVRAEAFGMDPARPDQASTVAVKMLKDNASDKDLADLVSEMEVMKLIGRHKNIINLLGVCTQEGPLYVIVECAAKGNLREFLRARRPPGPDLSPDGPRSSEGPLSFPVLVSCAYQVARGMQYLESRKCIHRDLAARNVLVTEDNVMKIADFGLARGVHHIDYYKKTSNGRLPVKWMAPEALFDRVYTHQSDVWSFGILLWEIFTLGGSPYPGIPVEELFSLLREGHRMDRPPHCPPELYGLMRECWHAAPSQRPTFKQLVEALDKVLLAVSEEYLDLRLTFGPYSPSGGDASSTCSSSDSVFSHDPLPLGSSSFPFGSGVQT
Assay [6] relates to bladder cancer cell line (RT112/84). Kind of assay: Tumor cell proliferation inhibition (CTG, 72 h). Type of assay: cell-based.
Assay [7] concerns thyroid cancer cell line (TT). Kind of assay: Tumor cell proliferation inhibition (CTG, 72 h). The format is cell-based.
The target in assay [8] is hERG potassium channels (Homo sapiens (Human), UniProt Q12809). The assay can be described thus: hERG in vitro inhibition, whole-cell patch clamp. The format is cell-based. The settings on record: in vitro hERG current inhibition.
The target of assay [9] is VEGFR-2 (KDR) (Homo sapiens (Human), UniProt P35968). Kind of assay: Kinase inhibition, Mobility-Shift Assay. The format is biochemical.
Sequence of VEGFR-2 (KDR) (P35968 20-1356): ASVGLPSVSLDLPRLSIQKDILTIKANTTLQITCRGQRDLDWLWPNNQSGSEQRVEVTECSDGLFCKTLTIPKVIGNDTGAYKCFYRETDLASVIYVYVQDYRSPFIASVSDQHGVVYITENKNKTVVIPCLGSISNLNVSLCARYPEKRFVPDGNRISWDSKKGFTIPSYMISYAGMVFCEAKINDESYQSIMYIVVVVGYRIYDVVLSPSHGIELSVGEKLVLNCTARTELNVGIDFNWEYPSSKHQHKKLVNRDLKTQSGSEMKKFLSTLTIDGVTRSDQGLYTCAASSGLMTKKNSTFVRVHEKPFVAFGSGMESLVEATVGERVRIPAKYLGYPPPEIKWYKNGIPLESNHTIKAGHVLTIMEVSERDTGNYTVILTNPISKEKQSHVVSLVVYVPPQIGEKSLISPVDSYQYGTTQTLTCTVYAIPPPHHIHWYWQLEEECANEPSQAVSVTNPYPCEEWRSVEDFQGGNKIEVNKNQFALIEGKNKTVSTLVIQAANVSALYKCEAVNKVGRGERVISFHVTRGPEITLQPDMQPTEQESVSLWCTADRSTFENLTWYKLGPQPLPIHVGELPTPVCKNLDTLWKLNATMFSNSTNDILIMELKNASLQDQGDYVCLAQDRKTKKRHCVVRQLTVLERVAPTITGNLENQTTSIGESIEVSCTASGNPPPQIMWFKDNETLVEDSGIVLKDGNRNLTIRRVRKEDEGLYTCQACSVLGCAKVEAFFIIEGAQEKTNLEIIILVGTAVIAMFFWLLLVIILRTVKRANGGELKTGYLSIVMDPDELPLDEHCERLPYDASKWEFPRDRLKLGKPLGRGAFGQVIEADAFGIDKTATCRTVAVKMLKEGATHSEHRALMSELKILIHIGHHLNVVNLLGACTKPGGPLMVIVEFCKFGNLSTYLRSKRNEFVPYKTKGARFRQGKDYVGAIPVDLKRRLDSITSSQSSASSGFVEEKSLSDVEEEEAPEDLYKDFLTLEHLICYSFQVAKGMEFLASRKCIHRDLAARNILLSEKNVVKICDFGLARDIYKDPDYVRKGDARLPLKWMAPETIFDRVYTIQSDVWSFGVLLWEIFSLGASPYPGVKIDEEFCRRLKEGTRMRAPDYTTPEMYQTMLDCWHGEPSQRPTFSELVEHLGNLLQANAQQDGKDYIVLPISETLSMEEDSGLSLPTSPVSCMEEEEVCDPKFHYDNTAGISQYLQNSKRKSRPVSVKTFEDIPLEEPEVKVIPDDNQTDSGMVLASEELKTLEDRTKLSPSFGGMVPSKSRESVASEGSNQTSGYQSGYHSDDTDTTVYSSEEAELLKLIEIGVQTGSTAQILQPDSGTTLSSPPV
In assay [10] the target is FGFR2 (Homo sapiens (Human), UniProt P21802). The assay can be described thus: Kinase inhibition, Mobility-Shift Assay. Type of assay: biochemical. The settings on record: class; read-out: FGFR2 range of activity effects (IC50).
In assay [11] the test system is hepatocellular carcinoma cell line (Hep3B 2.1-7). Kind of assay: Tumor cell proliferation inhibition (CTG, 72 h). Type of assay: cell-based. The settings on record: Hep3B 2.1-7 cells, class, read-out: Hep3B 2.1-7 range of activity (IC50).
Assay [12] relates to leukemia cell line (K562). Kind of assay: Tumor cell proliferation inhibition (CTG, 72 h). Type of assay: cell-based. The settings on record: K562 cells, class, read-out: K562 activity effect range (IC50).
For assay [13], the system named is cervical cancer cell line (Hela). Kind of assay: Tumor cell proliferation inhibition (CTG, 72 h). Type of assay: cell-based. The settings on record: Hela cells, class, read-out: Hela activity effect range (IC50).
Where [14] appears, read: class, read-out: C-MET range of activity (IC50).
Where [15] appears, read: class, read-out: EGFR range of activity (IC50).
[16] abbreviates: class, read-out: FGFR4 range of activity effects (IC50).
Setting [17] is: Homo sapiens, RT112/84 cells, class, read-out: RT112/84 range of activity (IC50).
Setting [18] is: Homo sapiens, TT cells, class, read-out: TT range of activity (IC50).
[19] abbreviates: class, read-out: KDR activity effect range (IC50).

Read-outs that look alike come from different tables or passages of the source. Where only a bound is given, the exact number is not on record here.

Sequence of EGFR (P00533 25-1210): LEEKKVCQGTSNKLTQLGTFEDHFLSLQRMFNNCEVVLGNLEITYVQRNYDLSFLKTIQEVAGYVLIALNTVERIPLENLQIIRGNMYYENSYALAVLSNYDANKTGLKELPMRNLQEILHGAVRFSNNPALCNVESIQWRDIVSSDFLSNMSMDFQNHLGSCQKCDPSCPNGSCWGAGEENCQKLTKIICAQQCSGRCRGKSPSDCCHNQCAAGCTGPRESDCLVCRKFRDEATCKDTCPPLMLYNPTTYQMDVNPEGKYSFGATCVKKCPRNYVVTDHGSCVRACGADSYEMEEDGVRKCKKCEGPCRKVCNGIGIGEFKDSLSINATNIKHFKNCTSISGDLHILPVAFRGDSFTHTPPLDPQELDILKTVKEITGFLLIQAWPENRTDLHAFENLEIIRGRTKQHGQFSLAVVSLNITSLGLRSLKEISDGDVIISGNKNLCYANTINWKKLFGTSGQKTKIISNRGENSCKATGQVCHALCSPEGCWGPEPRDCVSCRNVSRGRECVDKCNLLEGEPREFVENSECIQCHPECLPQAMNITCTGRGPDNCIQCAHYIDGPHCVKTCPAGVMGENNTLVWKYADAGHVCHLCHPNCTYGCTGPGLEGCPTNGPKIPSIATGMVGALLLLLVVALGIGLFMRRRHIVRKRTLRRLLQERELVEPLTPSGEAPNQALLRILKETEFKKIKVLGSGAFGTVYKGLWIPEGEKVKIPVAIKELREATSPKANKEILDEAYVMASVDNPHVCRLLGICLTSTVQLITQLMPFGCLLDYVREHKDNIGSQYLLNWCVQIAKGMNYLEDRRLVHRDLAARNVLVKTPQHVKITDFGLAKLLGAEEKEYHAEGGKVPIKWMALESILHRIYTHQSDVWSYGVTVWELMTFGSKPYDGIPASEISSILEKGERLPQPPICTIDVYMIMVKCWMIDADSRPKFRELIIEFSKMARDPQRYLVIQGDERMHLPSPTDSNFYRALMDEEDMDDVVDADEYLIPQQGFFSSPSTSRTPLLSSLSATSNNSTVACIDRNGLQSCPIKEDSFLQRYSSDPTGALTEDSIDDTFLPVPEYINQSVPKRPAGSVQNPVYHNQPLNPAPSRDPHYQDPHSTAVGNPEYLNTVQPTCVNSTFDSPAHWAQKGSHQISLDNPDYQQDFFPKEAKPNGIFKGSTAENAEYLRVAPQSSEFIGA
Sequence of C-MET (P08581 25-1390): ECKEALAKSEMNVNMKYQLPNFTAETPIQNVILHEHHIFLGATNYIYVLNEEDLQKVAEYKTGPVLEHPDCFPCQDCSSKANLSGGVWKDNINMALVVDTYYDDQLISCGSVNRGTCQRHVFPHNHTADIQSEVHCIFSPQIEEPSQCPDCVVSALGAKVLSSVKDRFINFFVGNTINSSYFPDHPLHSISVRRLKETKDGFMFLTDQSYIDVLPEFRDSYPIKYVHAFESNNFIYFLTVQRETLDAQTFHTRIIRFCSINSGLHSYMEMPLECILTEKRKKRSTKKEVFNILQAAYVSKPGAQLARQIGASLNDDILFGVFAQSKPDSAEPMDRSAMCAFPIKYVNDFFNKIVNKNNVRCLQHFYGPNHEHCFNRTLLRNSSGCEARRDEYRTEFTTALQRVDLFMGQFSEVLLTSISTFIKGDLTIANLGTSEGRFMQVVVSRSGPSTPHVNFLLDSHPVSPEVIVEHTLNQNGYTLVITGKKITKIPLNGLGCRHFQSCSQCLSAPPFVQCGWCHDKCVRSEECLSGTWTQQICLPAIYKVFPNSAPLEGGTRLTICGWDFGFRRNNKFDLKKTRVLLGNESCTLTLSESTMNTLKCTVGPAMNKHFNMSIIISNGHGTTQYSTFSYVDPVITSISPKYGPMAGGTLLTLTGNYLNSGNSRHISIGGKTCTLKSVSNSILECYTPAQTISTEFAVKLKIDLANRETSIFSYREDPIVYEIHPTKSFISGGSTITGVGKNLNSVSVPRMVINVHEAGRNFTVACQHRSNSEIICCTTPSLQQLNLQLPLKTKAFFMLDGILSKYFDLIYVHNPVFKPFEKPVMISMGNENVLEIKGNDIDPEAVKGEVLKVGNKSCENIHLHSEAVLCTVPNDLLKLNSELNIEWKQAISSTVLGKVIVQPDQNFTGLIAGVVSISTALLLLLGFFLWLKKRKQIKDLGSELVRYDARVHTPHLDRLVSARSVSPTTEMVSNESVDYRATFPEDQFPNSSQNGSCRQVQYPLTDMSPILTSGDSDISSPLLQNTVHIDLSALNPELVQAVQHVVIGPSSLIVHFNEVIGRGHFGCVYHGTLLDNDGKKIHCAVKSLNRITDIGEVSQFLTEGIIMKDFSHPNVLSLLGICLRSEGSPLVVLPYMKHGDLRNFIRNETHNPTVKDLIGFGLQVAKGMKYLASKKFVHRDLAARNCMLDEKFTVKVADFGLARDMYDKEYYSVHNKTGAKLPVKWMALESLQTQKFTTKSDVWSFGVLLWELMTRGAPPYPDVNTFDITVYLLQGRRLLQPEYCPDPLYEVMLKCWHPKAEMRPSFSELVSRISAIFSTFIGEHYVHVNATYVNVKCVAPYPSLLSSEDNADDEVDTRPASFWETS

On to `CNC(=O)c1cc(Oc2ccc(NC(=O)Nc3ccc(Cl)c(C(F)(F)F)c3)c(F)c2)ccn1` [Regorafenib, reference compound], for which the IC50 in assay [1] (setting [14]) is above 100 nM; in assay [1] (read-out: C-MET IC50) it was above 1000 nM; in assay [2], 62 nM; in [3] (setting [15]), above 100 nM; in assay [3] (read-out: EGFR IC50), above 1000 nM; in [4], above 500 nM. For the same compound, the IC50 in assay [5] (setting [16]) is above 100 nM; in assay [5] (read-out: FGFR-4 IC50), above 500 nM; in [6] (setting [17]), 0.2 to 1 µM; in assay [7] (setting [18]), above 10 µM.

`COc1cc2nccc(Oc3ccc(NC(=O)NC4CC4)c(Cl)c3F)c2cc1C(N)=O` [Ref-2, reference compound]: the IC50 in assay [8] is 15400 nM; in assay [3] (read-out: EGFR IC50) it was above 1000 nM; in assay [5] (read-out: FGFR-4 IC50), 39 nM; in assay [9] (read-out: VEGFR-2 (KDR) IC50) it was 8.6 nM; in assay [6] (Homo sapiens, RT112/84 bladder cancer cells, 72 h, read-out: RT112/84 (uM), inhibitory activity IC50), 0.42 µM; in [7] (TT thyroid cancer cells, 72 h, read-out: TT (uM), inhibitory activity IC50), 6.4 µM.

`COc1cc2nccc(Oc3c(F)cc(NC(=O)NC4CC4)c(Cl)c3N(C)C)c2cc1C(N)=O` [III-49]: the IC50 is above 100 nM in assay [1] (setting [14]); above 100 nM in assay [3] (setting [15]); above 100 nM in [10]; above 100 nM in assay [5] (setting [16]); above 5000 nM in assay [11] (Homo sapiens); above 10 nM in [9] (setting [19]). The IC50 in assay [12] (Homo sapiens) is above 10000 nM; in [13] (Homo sapiens) it was above 10000 nM; in [6] (setting [17]), above 1 µM; in assay [7] (setting [18]) it was above 10 µM.

For `COc1cc2nccc(Oc3c(Cl)cc(NC(=O)NC4CC4)c(Cl)c3F)c2cc1C(N)=O` [III-19], the IC50 in assay [1] (setting [14]) was above 100 nM; in assay [3] (setting [15]), above 100 nM; in [10] it was above 100 nM; in [5] (setting [16]), above 100 nM; in assay [11] (Homo sapiens), above 5000 nM; in [9] (setting [19]), above 10 nM. For the same compound, the IC50 is above 10000 nM in assay [12] (Homo sapiens), above 10000 nM in [13] (Homo sapiens), above 1 µM in [6] (setting [17]) and above 10 µM in assay [7] (setting [18]).

For `COc1cc2nccc(Oc3c(F)cc(NC(=O)NC4COC4)c(Cl)c3F)c2cc1C(N)=O` [III-27], the IC50 was above 100 nM in assay [1] (setting [14]); above 100 nM in assay [3] (setting [15]); above 100 nM in assay [10]; above 100 nM in assay [5] (setting [16]); above 5000 nM in assay [11] (Homo sapiens); above 10 nM in assay [9] (setting [19]). The IC50 is above 10000 nM in [12] (Homo sapiens), above 10000 nM in assay [13] (Homo sapiens), above 1 µM in assay [6] (setting [17]) and above 10 µM in assay [7] (setting [18]).

In the case of `COc1cc2nccc(Oc3c(F)cc(NC(=O)NC4CC4)c(Cl)c3N(C)C3CC3)c2cc1C(N)=O` [III-48], the IC50 in assay [1] (setting [14]) was above 100 nM; in assay [3] (setting [15]) it was above 100 nM; in assay [10] it was above 100 nM; in assay [5] (setting [16]), above 100 nM; in [11] (Homo sapiens), above 5000 nM; in assay [9] (setting [19]), above 10 nM. Further, the IC50 was above 10000 nM in assay [12] (Homo sapiens), above 10000 nM in assay [13] (Homo sapiens), above 1 µM in [6] (setting [17]) and above 10 µM in assay [7] (setting [18]).

As to `COc1cc2nccc(Oc3c(F)cc(NC(=O)NCC(F)F)c(Cl)c3F)c2cc1C(N)=O` [III-05], the IC50 was above 100 nM in assay [1] (setting [14]); above 100 nM in [3] (setting [15]); above 100 nM in assay [10]; above 100 nM in assay [5] (setting [16]); above 5000 nM in assay [11] (Homo sapiens); above 10 nM in [9] (setting [19]). In addition, the IC50 in assay [12] (Homo sapiens) was above 10000 nM; in assay [13] (Homo sapiens), above 10000 nM; in assay [6] (setting [17]), above 1 µM; in assay [7] (setting [18]) it was above 10 µM.

Regarding `COc1cc2nccc(Oc3c(F)cc(NC(=O)NC4(C(F)(F)F)CC4)c(Cl)c3F)c2cc1C(N)=O` [III-39], the IC50 was above 100 nM in assay [1] (setting [14]); above 100 nM in [3] (setting [15]); above 100 nM in assay [10]; above 100 nM in [5] (setting [16]); above 5000 nM in [11] (Homo sapiens); above 10 nM in assay [9] (setting [19]). For the same compound, the IC50 in assay [12] (Homo sapiens) was above 10000 nM; in assay [13] (Homo sapiens) it was above 10000 nM; in assay [6] (setting [17]) it was above 1 µM; in [7] (setting [18]) it was above 10 µM.

Take `COc1cc2nccc(Oc3c(F)cc(NC(=O)NC4CC4)c(Cl)c3OCC(F)(F)F)c2cc1C(N)=O` [III-47]: the IC50 in [1] (setting [14]) is above 100 nM; in assay [3] (setting [15]), above 100 nM; in assay [10], above 100 nM; in [5] (setting [16]) it was above 100 nM; in [11] (Homo sapiens), above 5000 nM; in assay [9] (setting [19]) it was above 10 nM. Also, the IC50 is above 10000 nM in [12] (Homo sapiens), above 10000 nM in [13] (Homo sapiens), above 1 µM in [6] (setting [17]) and above 10 µM in [7] (setting [18]).

As for `COc1cc2nccc(Oc3c(F)cc(NC(=O)NC4CC(O)C4)c(Cl)c3F)c2cc1C(N)=O` (stereo not shown) [III-30], the IC50 is above 100 nM in [1] (setting [14]); above 100 nM in assay [3] (setting [15]); above 100 nM in assay [10]; above 100 nM in assay [5] (setting [16]); above 5000 nM in [11]; above 10 nM in assay [9] (setting [19]). The IC50 is above 10000 nM in [12]; above 10000 nM in assay [13]; above 1 µM in assay [6] (RT112/84 cells, class, read-out: RT112/84 range of activity (IC50)); above 10 µM in assay [7] (TT cells, class, read-out: TT range of activity (IC50)).

Regarding `COc1cc2nccc(Oc3c(F)cc(NC(=O)NC4CC4)c(F)c3F)c2cc1C(N)=O` [III-16], the IC50 was 60 to 100 nM in assay [1] (setting [14]); above 100 nM in assay [3] (setting [15]); 30 to 100 nM in assay [10]; above 100 nM in assay [5] (setting [16]); 2500 to 5000 nM in assay [11] (Homo sapiens); 2 to 10 nM in assay [9] (setting [19]). Also, the IC50 in assay [12] (Homo sapiens) is 5000 to 10000 nM; in assay [13] (Homo sapiens), above 10000 nM; in assay [6] (setting [17]) it was 0.2 to 1 µM; in [7] (setting [18]), above 10 µM.
